# In PubChem BioAssay AID1918945 (Molecular Pharmacology Branch, DTP, NCI, 2023):
# Tested on: 883617-216-R-J1-PDC complex spheroid viability
# Assay: Anticancer human tumor 883617-216-R-J1-PDC patient-derived bladder carcinoma cell line growth inhibition
# Settings: for IC50: curve of first compound; for viability, T/C: stronger effect = lower value
# How it was run: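 Multicellular complex spheroids of tumor cells with human endothelial cells (HUVEC) and mesenchymal stem cells; the LSD1 inhibitor iadademstat was combined with standard-of-care or investigational agents. Top concentration at or near clinical Cmax, half-log dilutions; final DMSO ≤0.25%.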
# [1] = second compound 0.1 µM, first compound 0.0316 µM
# [2] = second compound 0.1 µM, first compound 0.1 µM
# [3] = second compound 0.1 µM, first compound 0.316 µM
# [4] = second compound 0.1 µM, first compound 1 µM
# [5] = second compound 0.1 µM, first compound 3.16 µM
# [6] = second compound 0.1 µM, first compound 10 µM
# [7] = second compound 0.316 µM, first compound 0.0316 µM
# [8] = second compound 0.316 µM, first compound 0.1 µM
# [9] = second compound 0.316 µM, first compound 0.316 µM
# [10] = second compound 0.316 µM, first compound 1 µM
# [11] = second compound 0.316 µM, first compound 3.16 µM
# [12] = second compound 0.316 µM, first compound 10 µM
# [13] = second compound 1 µM, first compound 0.0316 µM
# [14] = second compound 1 µM, first compound 0.1 µM
# [15] = second compound 1 µM, first compound 0.316 µM
# [16] = second compound 1 µM, first compound 1 µM
# [17] = second compound 1 µM, first compound 3.16 µM
# [18] = second compound 1 µM, first compound 10 µM
# [19] = second compound 3.16 µM, first compound 0.0316 µM
# [20] = second compound 3.16 µM, first compound 0.1 µM
# [21] = second compound 3.16 µM, first compound 0.316 µM
# [22] = second compound 3.16 µM, first compound 1 µM
# [23] = second compound 3.16 µM, first compound 3.16 µM
# [24] = second compound 3.16 µM, first compound 10 µM
# [25] = second compound 10 µM, first compound 0.0316 µM
# [26] = second compound 10 µM, first compound 0.1 µM
# [27] = second compound 10 µM, first compound 0.316 µM
# [28] = second compound 10 µM, first compound 1 µM
# [29] = second compound 10 µM, first compound 3.16 µM
# [30] = second compound 10 µM, first compound 10 µM
# [31] = second compound 0.1 µM, first compound 0.00949 µM
# [32] = second compound 0.1 µM, first compound 0.03 µM
# [33] = second compound 0.1 µM, first compound 0.0949 µM
# [34] = second compound 0.1 µM, first compound 0.3 µM
# [35] = second compound 0.316 µM, first compound 0.00949 µM
# [36] = second compound 0.316 µM, first compound 0.03 µM
# [37] = second compound 0.316 µM, first compound 0.0949 µM
# [38] = second compound 0.316 µM, first compound 0.3 µM
# [39] = second compound 1 µM, first compound 0.00949 µM
# [40] = second compound 1 µM, first compound 0.03 µM
# [41] = second compound 1 µM, first compound 0.0949 µM
# [42] = second compound 1 µM, first compound 0.3 µM
# [43] = second compound 3.16 µM, first compound 0.00949 µM
# [44] = second compound 3.16 µM, first compound 0.03 µM
# [45] = second compound 3.16 µM, first compound 0.0949 µM
# [46] = second compound 3.16 µM, first compound 0.3 µM
# [47] = second compound 10 µM, first compound 0.00949 µM
# [48] = second compound 10 µM, first compound 0.03 µM
# [49] = second compound 10 µM, first compound 0.0949 µM
# [50] = second compound 10 µM, first compound 0.3 µM
# 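Further: exposure lasted seven days after three days of spheroid growth.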
# 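Wherever viability, T/C is given: 100% = DMSO vehicle control luminescence.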
smiles,measurement,setting,value
CC1(C)CCC(CN2CCN(c3ccc(C(=O)NS(=O)(=O)c4ccc(NCC5CCOCC5)c([N+](=O)[O-])c4)c(Oc4cnc5[nH]ccc5c4)c3)CC2)=C(c2ccc(Cl)cc2)C1 + NC1CC1c1ccc(-c2cccc(O)c2)cc1,IC50,second compound 0.1 µM,7410 nM
same,IC50,second compound 0.316 µM,7200 nM
same,IC50,second compound 1 µM,6430 nM
same,IC50,second compound 3.16 µM,6410 nM
same,IC50,second compound 10 µM,4920 nM
same,"viability, T/C",[1],115%
same,"viability, T/C",[2],116%
same,"viability, T/C",[3],125%
same,"viability, T/C",[4],129%
same,"viability, T/C",[5],117%
same,"viability, T/C",[6],26.2%
same,"viability, T/C",[7],128%
same,"viability, T/C",[8],130%
same,"viability, T/C",[9],131%
same,"viability, T/C",[10],129%
same,"viability, T/C",[11],118%
same,"viability, T/C",[12],23%
same,"viability, T/C",[13],115%
same,"viability, T/C",[14],121%
same,"viability, T/C",[15],111%
same,"viability, T/C",[16],121%
same,"viability, T/C",[17],102%
same,"viability, T/C",[18],17.4%
same,"viability, T/C",[19],124%
same,"viability, T/C",[20],109%
same,"viability, T/C",[21],106%
same,"viability, T/C",[22],115%
same,"viability, T/C",[23],107%
same,"viability, T/C",[24],14%
same,"viability, T/C",[25],90.9%
same,"viability, T/C",[26],96.8%
same,"viability, T/C",[27],79.6%
same,"viability, T/C",[28],83.1%
same,"viability, T/C",[29],75.5%
same,"viability, T/C",[30],11.2%
CC1COCCN1c1cc(C2(S(C)(=N)=O)CC2)nc(-c2ccnc3[nH]ccc23)n1 (stereo not given) + NC1CC1c1ccc(-c2cccc(O)c2)cc1,IC50,second compound 0.1 µM,357 nM
same,IC50,second compound 0.316 µM,435 nM
same,IC50,second compound 1 µM,501 nM
same,IC50,second compound 3.16 µM,259 nM
same,IC50,second compound 10 µM,152 nM
same,"viability, T/C",[1],97.8%
same,"viability, T/C",[2],78.5%
same,"viability, T/C",[3],51.9%
same,"viability, T/C",[4],35%
same,"viability, T/C",[5],28.9%
same,"viability, T/C",[6],27.7%
same,"viability, T/C",[7],112%
same,"viability, T/C",[8],76.6%
same,"viability, T/C",[9],55%
same,"viability, T/C",[10],38.2%
same,"viability, T/C",[11],31.8%
same,"viability, T/C",[12],25.2%
same,"viability, T/C",[13],101%
same,"viability, T/C",[14],77.4%
same,"viability, T/C",[15],55.3%
same,"viability, T/C",[16],41.5%
same,"viability, T/C",[17],29.1%
same,"viability, T/C",[18],22.4%
same,"viability, T/C",[19],88.5%
same,"viability, T/C",[20],65.3%
same,"viability, T/C",[21],46.1%
same,"viability, T/C",[22],35%
same,"viability, T/C",[23],31.5%
same,"viability, T/C",[24],24.6%
same,"viability, T/C",[25],81%
same,"viability, T/C",[26],58.4%
same,"viability, T/C",[27],34.6%
same,"viability, T/C",[28],29.3%
same,"viability, T/C",[29],25.8%
same,"viability, T/C",[30],22.8%
CCN(c1cc(-c2ccc(CN3CCOCC3)cc2)cc(C(=O)NCc2c(C)cc(C)[nH]c2=O)c1C)C1CCOCC1 + NC1CC1c1ccc(-c2cccc(O)c2)cc1,IC50,second compound 0.1 µM,> 3000 nM
same,IC50,second compound 0.316 µM,> 3000 nM
same,IC50,second compound 1 µM,> 3000 nM
same,IC50,second compound 3.16 µM,> 3000 nM
same,IC50,second compound 10 µM,> 3000 nM
same,"viability, T/C",[31],86.5%
same,"viability, T/C",[32],84.8%
same,"viability, T/C",[33],81.9%
same,"viability, T/C",[34],73.5%
same,"viability, T/C","second compound 0.1 µM, first compound 0.949 µM",79.4%
same,"viability, T/C","second compound 0.1 µM, first compound 3 µM",66.9%
same,"viability, T/C",[35],96.8%
same,"viability, T/C",[36],92.2%
same,"viability, T/C",[37],83.4%
same,"viability, T/C",[38],89.9%
same,"viability, T/C","second compound 0.316 µM, first compound 0.949 µM",86%
same,"viability, T/C","second compound 0.316 µM, first compound 3 µM",70%
same,"viability, T/C",[39],105%
same,"viability, T/C",[40],93%
same,"viability, T/C",[41],88.2%
same,"viability, T/C",[42],91.5%
same,"viability, T/C","second compound 1 µM, first compound 0.949 µM",88.6%
same,"viability, T/C","second compound 1 µM, first compound 3 µM",79.2%
same,"viability, T/C",[43],99.7%
same,"viability, T/C",[44],83.3%
same,"viability, T/C",[45],73.8%
same,"viability, T/C",[46],83.2%
same,"viability, T/C","second compound 3.16 µM, first compound 0.949 µM",88.6%
same,"viability, T/C","second compound 3.16 µM, first compound 3 µM",78.5%
same,"viability, T/C",[47],78.4%
same,"viability, T/C",[48],72.9%
same,"viability, T/C",[49],69.2%
same,"viability, T/C",[50],63%
same,"viability, T/C","second compound 10 µM, first compound 0.949 µM",71.1%
same,"viability, T/C","second compound 10 µM, first compound 3 µM",61.1%
Cn1ncnc1C1c2n[nH]c(=O)c3cc(F)cc(c23)NC1c1ccc(F)cc1 (stereo not given) + NC1CC1c1ccc(-c2cccc(O)c2)cc1,IC50,second compound 0.1 µM,15.1 nM
same,IC50,second compound 0.316 µM,16.2 nM
same,IC50,second compound 1 µM,12.4 nM
same,IC50,second compound 3.16 µM,8.5 nM
same,IC50,second compound 10 µM,6.41 nM
same,"viability, T/C","second compound 0.1 µM, first compound 0.000316 µM",105%
same,"viability, T/C","second compound 0.1 µM, first compound 0.001 µM",95.4%
same,"viability, T/C","second compound 0.1 µM, first compound 0.00316 µM",76.4%
same,"viability, T/C","second compound 0.1 µM, first compound 0.01 µM",53%
same,"viability, T/C",[1],44.1%
same,"viability, T/C",[2],37.8%
same,"viability, T/C","second compound 0.316 µM, first compound 0.000316 µM",116%
same,"viability, T/C","second compound 0.316 µM, first compound 0.001 µM",103%
same,"viability, T/C","second compound 0.316 µM, first compound 0.00316 µM",73%
same,"viability, T/C","second compound 0.316 µM, first compound 0.01 µM",54.3%
same,"viability, T/C",[7],47.1%
same,"viability, T/C",[8],40.8%
same,"viability, T/C","second compound 1 µM, first compound 0.000316 µM",118%
same,"viability, T/C","second compound 1 µM, first compound 0.001 µM",88.9%
same,"viability, T/C","second compound 1 µM, first compound 0.00316 µM",68.6%
same,"viability, T/C","second compound 1 µM, first compound 0.01 µM",50.2%
same,"viability, T/C",[13],43%
same,"viability, T/C",[14],37.8%
same,"viability, T/C","second compound 3.16 µM, first compound 0.000316 µM",92.4%
same,"viability, T/C","second compound 3.16 µM, first compound 0.001 µM",93%
same,"viability, T/C","second compound 3.16 µM, first compound 0.00316 µM",62.6%
same,"viability, T/C","second compound 3.16 µM, first compound 0.01 µM",50.4%
same,"viability, T/C",[19],42.2%
same,"viability, T/C",[20],33.9%
same,"viability, T/C","second compound 10 µM, first compound 0.000316 µM",83.5%
same,"viability, T/C","second compound 10 µM, first compound 0.001 µM",64.2%
same,"viability, T/C","second compound 10 µM, first compound 0.00316 µM",58.1%
same,"viability, T/C","second compound 10 µM, first compound 0.01 µM",44.9%
same,"viability, T/C",[25],40.9%
same,"viability, T/C",[26],32.3%
Nc1ncn(C2CC(O)C(CO)S2)c(=O)n1 (stereo not given) + NC1CC1c1ccc(-c2cccc(O)c2)cc1,IC50,second compound 0.1 µM,27.6 nM
same,IC50,second compound 0.316 µM,40.7 nM
same,IC50,second compound 1 µM,33.9 nM
same,IC50,second compound 3.16 µM,24.5 nM
same,IC50,second compound 10 µM,18.5 nM
same,"viability, T/C","second compound 0.1 µM, first compound 0.000949 µM",115%
same,"viability, T/C","second compound 0.1 µM, first compound 0.003 µM",97.1%
same,"viability, T/C",[31],67.2%
same,"viability, T/C",[32],49.5%
same,"viability, T/C",[33],37.6%
same,"viability, T/C",[34],29.5%
same,"viability, T/C","second compound 0.316 µM, first compound 0.000949 µM",119%
same,"viability, T/C","second compound 0.316 µM, first compound 0.003 µM",89.5%
same,"viability, T/C",[35],77.9%
same,"viability, T/C",[36],51.3%
same,"viability, T/C",[37],38.1%
same,"viability, T/C",[38],30.5%
same,"viability, T/C","second compound 1 µM, first compound 0.000949 µM",106%
same,"viability, T/C","second compound 1 µM, first compound 0.003 µM",101%
same,"viability, T/C",[39],64%
same,"viability, T/C",[40],57.5%
same,"viability, T/C",[41],36%
same,"viability, T/C",[42],29.4%
same,"viability, T/C","second compound 3.16 µM, first compound 0.000949 µM",92.8%
same,"viability, T/C","second compound 3.16 µM, first compound 0.003 µM",95.8%
same,"viability, T/C",[43],64.2%
same,"viability, T/C",[44],47.1%
same,"viability, T/C",[45],38.7%
same,"viability, T/C",[46],26.3%
same,"viability, T/C","second compound 10 µM, first compound 0.000949 µM",78.4%
same,"viability, T/C","second compound 10 µM, first compound 0.003 µM",76.7%
same,"viability, T/C",[47],56.7%
same,"viability, T/C",[48],45%
same,"viability, T/C",[49],36.6%
same,"viability, T/C",[50],33.1%
